In patent publication US7371524B2, “Substituted azaporphyrins as fluorescence labels” (priority 2003, dated 2008):

Key:
Assay type in all cases: physicochemical
[1] = Fluorescence intensity and polarization of free dye in buffers and glycerol (solvent sensitivity); settings: for Fluorescence Intensity (I), BBS / Polarization (mp), BBS: borate buffered saline pH 8.0; for Fluorescence Intensity (I), TDx Buffer: intensities comparable only horizontally; for solvent sensitivity of fluorescence intensity: buffer, buffer plus serum, glycerol
Text: The performance of a fluorophore (fluorescent moiety) can be partly assessed by measurements on the free dye i.e., not in a complete fluorescent probe. Meaningful parameters in this kind of test include fluorescence intensity and polarization/anisotropy which usually are altered when the fluorophore is exposed to different ionic strengths, specific ions or biomolecules such as are present in blood serum. These effects may be thought of as “solvent effects” and may be produced either by changes in the interactions between molecules of the fluorophore to change the state of aggregation or between fluorophore molecules and the components of the solvent (nonspecific binding, NSB).
In Table 1 the performance of any one dye can be judged by the changes in fluorescence intensity (I), and/or the changes in polarization (mp, milli-polarization units) as one proceeds horizontally across the table. The “perfect” fluorescence label would have the same values for each of these parameters regardless of the solvent composition.
Abbreviations: mp: […]; TDx Buffer: Commercial buffer used in fluorescence polarization assays; Pc: phthalocyanine; BBS: Borate buffered saline (0.25 M NaCl, 0.0232 M boric acid and 0.00179 M sodium tetraborate. The pH is finally adjusted to 8.0+/−0.05 with 1M NaOH). When serum was tested, 25 μl of whole serum was added to 1 ml of BBS (containing 25 μl of the dye already added). Note that the relative concentrations of the various fluorophores is not known so that comparisons of fluorescence intensities are meaningful only when proceeding in a horizontal direction. An alternative to BBS for manipulating LJB-3 in aqueous solutions is borate buffered KCl (BBKCl) which is made by mixing 33.1 ml of 0.70 M boric acid, 4.0 ml of 0.50 M K2B4O7, 75 ml of 4.0 M KCl and water to make 1 liter: pH ca. 8.1.
Fluorescence measurements: These were made in a transient state polarization fluorometer (FAST-1, Hyperion, Inc. Miami, Fla.)

[2] = Passage through membranes and gel permeation chromatography (micelle formation); settings: PEG dye at 10^−4 M and above
Text: In addition, an advantage emerges in that micelle formation by the PEG is absent. […] Also, the dye moves in the void volume in gel permeation chromatography designed to separate macromolecules from small molecules.

[3] = Near infrared absorbance of dye

Substance | sensitivity to ionic strength [1] | Fluorescence Intensity (I), BBS [1] | Polarization (mp), BBS [1] | Fluorescence Intensity (I), Glycerol [1] | Polarization (mp), Glycerol [1] | Polarization (mp), TDx Buffer [1] | Fluorescence Intensity (I), TDx Buffer [1] | solvent sensitivity of fluorescence intensity [1] | behaviour on membranes (30K daltons) and in gel permeation chromatography [2] | near infrared absorbance maximum [3]
Hydroxyaluminumphthalocyaninetrisulfonate [Al Pc trisulfonate, reference compound] | strong sensitivity to ionic strength | 520 | 3.4 mp | 3155 | 236 mp | 1.7 mp | 1108 | very solvent-sensitive | – | –
dihydroxy dicarboxy silicon phthalocyanine sulfonate [LJB-3] | – | 741 | 2.0 mp | 1351 | 199 mp | −.03 mp | 1230 | almost the same fluorescence output in buffer, buffer plus serum or glycerol alone | behaves as expected for a molecule of its formula weight | 679 nm
DiphosphatoSidicarboxyphthalocyanine | – | 1078 | 2.4 mp | 454 | 105 mp | 6.7 mp | 1069 | – | – | –
Bis-hydroxy (2,3Dicarboxyphthalocyanino) Silicon IV | – | – | – | – | – | – | – | less sensitive to serum and solvent than is the Al compound | – | –
